Holding throughout (assay): Free Choice Kinase Assay Projects, Flashplate
The target in assay [1] is MAPK14 (human) (UniProt Q16539). The note with it: compound 10.0 µM; ATP 1 µM.
Assay [2] addresses MAPK10 (human) (UniProt P53779). The note with it: compound 10.0 µM; ATP 0.3 µM.
In assay [3] the target is MAP3K8 (human) (UniProt P41279). The note with it: compound 10.0 µM; ATP 3 µM.
Assay [4] concerns the target TEK (human) (UniProt Q02763). Particulars: compound 10.0 µM; ATP 1 µM.
The target of assay [5] is CDK2 CCNA2 (human) (UniProt P24941+P20248). Particulars: compound 10.0 µM; ATP 0.3 µM.
In assay [6] the target is AXL (human) (UniProt P30530). Particulars: compound 10.0 µM; ATP 0.3 µM.
The target in assay [7] is ERBB2 (human) (UniProt P04626). The note with it: compound 10.0 µM; ATP 1 µM.
For assay [8], the target named is AURKB (human) (UniProt Q96GD4). The note with it: compound 10.0 µM; ATP 10 µM.
Assay [9] has as its target KDR (human) (UniProt P35968). Particulars: compound 10.0 µM; ATP 1 µM.
For assay [10], the target named is NUAK1 (human) (UniProt O60285). Particulars: compound 10.0 µM; ATP 1 µM.
Assay [11] addresses EPHB4 (human) (UniProt P54760). The note with it: compound 10.0 µM; ATP 1 µM.
Assay [12] deals with AKT1 (human) (UniProt P31749). The note with it: compound 10.0 µM; ATP 3 µM.
The target of assay [13] is AURKA (human) (UniProt O14965). The note with it: compound 10.0 µM; ATP 10 µM.
Assay [14] concerns the target PLK1 (human) (UniProt P53350). The note with it: compound 10.0 µM; ATP 1 µM.
Assay [15] addresses PDGFRB (human) (UniProt P09619). Particulars: compound 10.0 µM; ATP 0.3 µM.
Assay [16] addresses SRC (human) (UniProt P12931). The note with it: compound 10.0 µM; ATP 0.3 µM.
Assay [17] addresses MET (human) (UniProt P08581). The note with it: compound 10.0 µM; ATP 0.3 µM.
The target in assay [18] is IGF1R (human) (UniProt P08069). Particulars: compound 10.0 µM; ATP 1 µM.
IGF1R (human), sequence (P08069 whole entry, looked up): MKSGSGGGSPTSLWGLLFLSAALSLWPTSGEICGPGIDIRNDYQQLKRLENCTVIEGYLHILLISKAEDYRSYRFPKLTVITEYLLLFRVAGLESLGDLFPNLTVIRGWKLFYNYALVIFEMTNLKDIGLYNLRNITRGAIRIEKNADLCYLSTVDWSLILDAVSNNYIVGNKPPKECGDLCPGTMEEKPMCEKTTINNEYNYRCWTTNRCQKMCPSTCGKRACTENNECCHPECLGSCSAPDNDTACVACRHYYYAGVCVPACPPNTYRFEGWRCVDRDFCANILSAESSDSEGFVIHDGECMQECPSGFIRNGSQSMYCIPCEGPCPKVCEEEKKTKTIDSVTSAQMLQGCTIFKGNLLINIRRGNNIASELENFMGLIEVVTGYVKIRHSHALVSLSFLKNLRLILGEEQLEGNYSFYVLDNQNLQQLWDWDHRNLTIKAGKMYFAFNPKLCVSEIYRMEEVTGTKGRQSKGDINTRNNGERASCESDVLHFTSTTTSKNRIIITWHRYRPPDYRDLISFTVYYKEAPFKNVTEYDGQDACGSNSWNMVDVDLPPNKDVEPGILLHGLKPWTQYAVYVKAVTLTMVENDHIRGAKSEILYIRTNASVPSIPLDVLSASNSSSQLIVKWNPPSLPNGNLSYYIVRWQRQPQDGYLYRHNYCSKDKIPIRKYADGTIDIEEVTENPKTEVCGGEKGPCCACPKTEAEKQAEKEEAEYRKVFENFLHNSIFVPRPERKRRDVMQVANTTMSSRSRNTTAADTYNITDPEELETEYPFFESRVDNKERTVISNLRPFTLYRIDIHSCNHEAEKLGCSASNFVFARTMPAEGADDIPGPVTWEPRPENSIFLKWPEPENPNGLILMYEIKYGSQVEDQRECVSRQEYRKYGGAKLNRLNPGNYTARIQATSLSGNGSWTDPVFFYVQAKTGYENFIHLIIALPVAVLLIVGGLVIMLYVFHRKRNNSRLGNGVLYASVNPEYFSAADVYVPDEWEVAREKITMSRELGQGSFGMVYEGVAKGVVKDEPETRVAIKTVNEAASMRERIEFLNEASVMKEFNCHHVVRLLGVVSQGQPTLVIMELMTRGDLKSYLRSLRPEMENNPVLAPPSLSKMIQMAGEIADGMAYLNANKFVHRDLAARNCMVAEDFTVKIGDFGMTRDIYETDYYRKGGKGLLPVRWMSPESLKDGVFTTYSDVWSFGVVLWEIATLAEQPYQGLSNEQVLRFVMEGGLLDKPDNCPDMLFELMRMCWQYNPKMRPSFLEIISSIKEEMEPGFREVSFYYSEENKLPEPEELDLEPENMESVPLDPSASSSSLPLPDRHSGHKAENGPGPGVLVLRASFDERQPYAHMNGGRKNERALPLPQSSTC
For assay [19], the target named is PTK2 (human) (UniProt Q05397). The note with it: compound 10.0 µM; ATP 1 µM.
Assay [20] deals with CSNK2A1 (human) (UniProt P68400). The note with it: compound 10.0 µM; ATP 0.1 µM.
CSNK2A1 (human), sequence (P68400 whole entry, looked up): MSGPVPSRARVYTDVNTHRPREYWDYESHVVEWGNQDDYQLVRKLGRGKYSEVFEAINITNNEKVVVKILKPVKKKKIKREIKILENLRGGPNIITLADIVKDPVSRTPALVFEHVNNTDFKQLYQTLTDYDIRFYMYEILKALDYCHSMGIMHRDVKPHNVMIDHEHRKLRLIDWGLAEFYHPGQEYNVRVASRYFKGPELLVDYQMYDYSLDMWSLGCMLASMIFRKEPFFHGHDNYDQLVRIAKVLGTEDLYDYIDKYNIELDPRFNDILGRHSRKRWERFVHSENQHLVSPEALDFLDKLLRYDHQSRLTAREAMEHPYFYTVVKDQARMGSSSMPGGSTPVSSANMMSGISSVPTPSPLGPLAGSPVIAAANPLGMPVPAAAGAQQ
In assay [21] the target is EGFR (human) (UniProt P00533). Particulars: compound 10.0 µM; ATP 0.3 µM.
The target in assay [22] is PLK4 (human) (UniProt O00444). Particulars: compound 10.0 µM; ATP 0.3 µM.
Assay [23] deals with CDK4 CCND1 (human) (UniProt P11802+P24385). The note with it: compound 10.0 µM; ATP 3 µM.
CDK4 CCND1 (human), sequence (P11802 whole entry, looked up): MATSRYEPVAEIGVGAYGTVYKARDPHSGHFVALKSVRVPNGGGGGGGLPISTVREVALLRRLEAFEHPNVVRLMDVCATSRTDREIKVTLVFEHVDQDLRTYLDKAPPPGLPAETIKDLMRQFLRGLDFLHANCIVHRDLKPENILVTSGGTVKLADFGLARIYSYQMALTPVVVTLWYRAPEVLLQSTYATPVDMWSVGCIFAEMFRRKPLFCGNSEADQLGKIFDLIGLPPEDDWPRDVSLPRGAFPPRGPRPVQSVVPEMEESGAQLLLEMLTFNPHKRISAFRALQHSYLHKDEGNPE
CDK4 CCND1 (human), sequence (P24385 whole entry, looked up): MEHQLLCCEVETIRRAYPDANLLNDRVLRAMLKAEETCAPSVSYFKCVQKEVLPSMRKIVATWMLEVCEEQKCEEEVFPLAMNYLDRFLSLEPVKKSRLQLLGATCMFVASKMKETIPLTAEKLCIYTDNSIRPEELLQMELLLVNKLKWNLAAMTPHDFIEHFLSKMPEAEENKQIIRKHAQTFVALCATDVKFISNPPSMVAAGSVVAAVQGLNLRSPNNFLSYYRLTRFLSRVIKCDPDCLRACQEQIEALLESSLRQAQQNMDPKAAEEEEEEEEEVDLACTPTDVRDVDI

EPHB4 (human), sequence (P54760 whole entry, looked up): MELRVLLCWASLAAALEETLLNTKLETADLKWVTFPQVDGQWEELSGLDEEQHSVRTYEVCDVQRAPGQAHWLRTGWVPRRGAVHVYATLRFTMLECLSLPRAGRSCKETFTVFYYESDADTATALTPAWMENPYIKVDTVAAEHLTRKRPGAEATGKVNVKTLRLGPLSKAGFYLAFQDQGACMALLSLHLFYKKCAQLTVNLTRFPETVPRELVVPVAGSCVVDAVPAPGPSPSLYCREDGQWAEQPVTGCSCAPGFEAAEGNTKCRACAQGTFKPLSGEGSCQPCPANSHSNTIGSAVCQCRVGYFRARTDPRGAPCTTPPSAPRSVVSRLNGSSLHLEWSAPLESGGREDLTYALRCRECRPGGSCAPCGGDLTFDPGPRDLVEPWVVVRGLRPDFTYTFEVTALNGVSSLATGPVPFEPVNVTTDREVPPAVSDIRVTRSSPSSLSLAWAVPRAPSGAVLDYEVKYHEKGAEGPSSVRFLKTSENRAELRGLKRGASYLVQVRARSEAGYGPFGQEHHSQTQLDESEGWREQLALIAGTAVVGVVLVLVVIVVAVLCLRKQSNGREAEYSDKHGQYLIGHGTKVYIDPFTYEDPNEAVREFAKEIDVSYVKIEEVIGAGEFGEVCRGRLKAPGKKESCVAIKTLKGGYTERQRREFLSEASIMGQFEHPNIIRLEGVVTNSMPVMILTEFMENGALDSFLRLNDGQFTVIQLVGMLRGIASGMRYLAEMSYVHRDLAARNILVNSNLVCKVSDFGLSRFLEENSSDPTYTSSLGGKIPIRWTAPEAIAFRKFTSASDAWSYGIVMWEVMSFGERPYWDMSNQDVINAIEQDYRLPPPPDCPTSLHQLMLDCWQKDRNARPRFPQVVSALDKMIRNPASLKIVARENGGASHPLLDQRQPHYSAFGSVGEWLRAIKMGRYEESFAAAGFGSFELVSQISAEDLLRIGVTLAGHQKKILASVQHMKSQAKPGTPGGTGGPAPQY
MAPK14 (human), sequence (Q16539 whole entry, looked up): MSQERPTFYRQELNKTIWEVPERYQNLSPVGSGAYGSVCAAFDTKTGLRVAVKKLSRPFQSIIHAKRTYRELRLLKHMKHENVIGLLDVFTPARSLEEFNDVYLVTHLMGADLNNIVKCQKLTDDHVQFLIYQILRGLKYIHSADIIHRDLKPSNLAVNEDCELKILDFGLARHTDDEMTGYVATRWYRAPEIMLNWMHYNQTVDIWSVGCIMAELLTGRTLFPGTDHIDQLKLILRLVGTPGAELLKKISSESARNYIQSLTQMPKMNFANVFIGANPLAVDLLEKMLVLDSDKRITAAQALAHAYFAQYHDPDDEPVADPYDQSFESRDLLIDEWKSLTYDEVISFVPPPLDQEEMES
TEK (human), sequence (Q02763 whole entry, looked up): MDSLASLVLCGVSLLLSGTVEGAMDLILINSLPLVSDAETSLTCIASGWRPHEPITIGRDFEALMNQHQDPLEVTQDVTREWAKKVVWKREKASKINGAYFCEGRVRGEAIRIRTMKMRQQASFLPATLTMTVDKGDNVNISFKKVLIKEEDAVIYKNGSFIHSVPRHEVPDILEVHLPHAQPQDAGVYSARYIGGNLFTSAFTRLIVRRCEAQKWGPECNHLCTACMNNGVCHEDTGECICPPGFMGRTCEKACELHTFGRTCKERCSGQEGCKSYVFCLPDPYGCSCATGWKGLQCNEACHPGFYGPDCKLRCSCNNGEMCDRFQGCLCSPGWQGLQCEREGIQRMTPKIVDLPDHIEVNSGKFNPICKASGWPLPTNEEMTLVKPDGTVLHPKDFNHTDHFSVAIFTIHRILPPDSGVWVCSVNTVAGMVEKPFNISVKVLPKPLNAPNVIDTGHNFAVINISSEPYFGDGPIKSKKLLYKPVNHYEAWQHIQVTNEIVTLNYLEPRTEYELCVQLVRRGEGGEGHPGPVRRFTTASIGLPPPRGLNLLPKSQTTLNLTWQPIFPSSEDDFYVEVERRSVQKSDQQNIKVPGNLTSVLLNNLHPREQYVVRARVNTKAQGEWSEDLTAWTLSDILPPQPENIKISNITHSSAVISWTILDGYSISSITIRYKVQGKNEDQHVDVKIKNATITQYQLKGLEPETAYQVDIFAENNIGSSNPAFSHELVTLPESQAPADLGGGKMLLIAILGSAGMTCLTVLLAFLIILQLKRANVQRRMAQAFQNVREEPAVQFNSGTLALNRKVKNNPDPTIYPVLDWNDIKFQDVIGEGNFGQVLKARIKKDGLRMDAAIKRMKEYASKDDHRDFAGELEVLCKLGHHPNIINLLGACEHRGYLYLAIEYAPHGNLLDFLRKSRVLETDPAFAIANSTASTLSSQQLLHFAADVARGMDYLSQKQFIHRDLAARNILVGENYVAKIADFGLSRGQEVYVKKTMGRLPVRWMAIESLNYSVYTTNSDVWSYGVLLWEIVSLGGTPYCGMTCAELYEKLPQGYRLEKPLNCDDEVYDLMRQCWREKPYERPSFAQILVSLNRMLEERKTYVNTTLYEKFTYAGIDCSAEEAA

Turning to `COc1ccc(C(=O)Nc2cc(-c3nc(SC)n(C)c3-c3ccc(F)cc3)ccn2)cc1`, the residual activity stood at 3% in assay [1]; 18% in [2]; 87% in assay [3]; 21% in assay [4]; 37% in [5]; 54% in assay [6]. Moreover, the residual activity in assay [7] is 17%; in [8] it was 87%; in assay [9], 8%; in [10] it was 95%; in assay [11] it was 33%; in [12], 113%. Besides, the residual activity in assay [13] was found to be 97%; in assay [14], 81%; in [15], 48%; in assay [16], 9%; in [17], 52%; in assay [18], 23%. Besides, the residual activity in [19] was found to be 131%; in assay [20], 72%; in assay [21], 7%; in assay [22], 20%; in assay [23], 76%.

As for `Fc1ccc(-c2[nH]c(/C=C/c3ccccc3)nc2-c2ccncc2)cc1`, the residual activity amounted to 0% in assay [1]; 11% in assay [2]; 35% in [3]; 6% in assay [4]; 32% in assay [5]; 61% in [6]. In addition, the residual activity in [7] came out at 3%; in [8] it was 32%; in assay [9] it was 17%; in [10] it was 45%; in assay [11], 21%; in assay [12], 75%. Besides, the residual activity in [13] was determined as 38%; in assay [14], 39%; in [15], 34%; in [16], 8%; in assay [17], 25%; in assay [18], 16%. Moreover, the residual activity in [19] is 82%; in assay [20], 73%; in assay [21] it was 2%; in [22], 5%; in [23], 36%.

For the compound `CSc1nc(-c2ccnc(NC(=O)C3CC3)c2)c(-c2ccc(F)cc2)n1C`, the residual activity in assay [1] was found to be 1%; in assay [2], 11%; in [3] it was 104%; in assay [4], 8%; in assay [5] it was 234%; in assay [6], 18%. Moreover, the residual activity was 17% in assay [7]; 47% in assay [8]; 2% in assay [9]; 109% in assay [10]; 9% in assay [11]; 121% in [12]. Further, the residual activity in assay [13] was found to be 31%; in assay [14], 114%; in assay [15], 29%; in [16], 13%; in [17] it was 81%; in [18], 53%. In addition, the residual activity is 53% in [19]; 89% in [20]; 11% in assay [21]; 56% in assay [22]; 109% in assay [23].

As to `Fc1ccc(-c2[nH]c(CCc3ccccc3)nc2-c2ccncc2)cc1`, the residual activity in assay [1] was found to be 0%; in assay [2], 14%; in assay [3], 69%; in [4], 9%; in assay [5], 45%; in [6], 54%. Besides, the residual activity was found to be 2% in assay [7]; 50% in assay [8]; 4% in [9]; 89% in assay [10]; 13% in assay [11]; 76% in assay [12]. Moreover, the residual activity was 44% in assay [13]; 95% in assay [14]; 20% in [15]; 1% in assay [16]; 35% in assay [17]; 18% in assay [18]. For the same compound, the residual activity is 99% in assay [19]; 81% in assay [20]; 1% in assay [21]; 26% in assay [22]; 99% in assay [23].

With `CC(Nc1cc(-c2nc(SCc3ccccc3)[nH]c2-c2ccc(F)cc2)ccn1)c1ccccc1` (stereo unspecified), the residual activity in assay [1] worked out at 3%; in [2], 20%; in assay [3], 50%; in assay [4], 13%; in assay [5], 17%; in assay [6], 44%. Also, the residual activity in [7] is 21%; in assay [8], 58%; in assay [9], 39%; in assay [10] it was 43%; in assay [11], 31%; in assay [12], 66%. Also, the residual activity in assay [13] came out at 64%; in assay [14], 38%; in assay [15], 45%; in assay [16], 14%; in [17], 43%; in [18] it was 20%. Besides, the residual activity in assay [19] worked out at 82%; in assay [20] it was 78%; in [21], 16%; in assay [22], 17%; in assay [23], 27%.

Consider `CSc1nc(-c2ccnc(NC(C)=O)c2)c(-c2ccc(F)cc2)n1C`, for which the residual activity in assay [1] worked out at 1%; in assay [2], 11%; in assay [3] it was 74%; in [4], 24%; in assay [5], 111%; in assay [6], 52%. In addition, the residual activity in assay [7] is 31%; in [8] it was 78%; in assay [9], 13%; in assay [10] it was 104%; in [11], 32%; in assay [12] it was 154%. Besides, the residual activity in assay [13] worked out at 58%; in assay [14] it was 109%; in [15] it was 26%; in [16] it was 29%; in assay [17], 79%; in assay [18] it was 78%. Moreover, the residual activity worked out at 71% in assay [19]; 88% in assay [20]; 17% in [21]; 70% in assay [22]; 102% in assay [23].

Turning to `CSc1nc(-c2ccnc(F)c2)c(-c2ccc(F)cc2)[nH]1`, the residual activity in assay [1] was 2%; in assay [2], 48%; in assay [3] it was 105%; in assay [4], 71%; in assay [5] it was 125%; in assay [6], 101%. The residual activity in [7] came to 18%; in [8], 90%; in assay [9], 39%; in assay [10] it was 105%; in [11], 61%; in assay [12], 102%. Further, the residual activity in assay [13] was 93%; in assay [14], 85%; in [15], 81%; in [16], 60%; in assay [17] it was 91%; in [18], 96%. Moreover, the residual activity turned out to be 100% in assay [19]; 98% in assay [20]; 23% in assay [21]; 76% in assay [22]; 132% in [23].

One may read the residual activity as the signal under treatment as a percentage of the control signal.

The values above are taken from the kinase profiling compilation of Christmann-Franck et al. (2016).
